Calls of active or inactive are those of the source. The rule behind the calls is not given here.
Tested on: SK-MEL-2
Test: Growth inhibition of human SK-MEL-2 cells
Assay type: functional

Row | GI50 (read-out: GI50) [µM] | GI50 (read-out: pGI50 (converted)) [µM] | Compound | growth inhibition (GI)
1 |  |  | COc1cc(C2c3cc4c(cc3OC(N3CCCC3)C2C)OCO4)cc(OC)c1OC (stereo unspecified) | Active
2 | 0.874 | 0.875 | O=C1c2cccnc2-c2nc(-c3ccccn3)cc3c2c1nc1ccccc13 | 
3 | 15 | 15 | Cc1ccc(-c2cc3c4c(nc5ccccc53)C(=O)c3cccnc3-c4n2)cc1 | 
4 |  |  | CC1C(c2ccccc2O)c2cc3c(cc2OC1N1CCCC1)OCO3 (stereo unspecified) | inactive
